From publication PMC4834666 (ACS Medicinal Chemistry Letters, 2016) come the findings set out here.

SMILES strings stand for the structures.

The conditions of data set [1]: human liver microsomes. For orientation: Liver microsomes are a subcellular fraction often used to study metabolism.
Data set [2] can be described thus: Human hepatocyte stability. The note with it: human hepatocytes. Type of data set: in vitro ADME.
Data set [3] deals with U87 MG/M human glioblastoma xenografts. The note with it: each dose, for the duration of the xenograft study.

Regarding `COC(C)(C)c1cc2nc(-c3cnc(N)nc3)nc(N3CCOCC3)c2s1` [Compound 1, reference compound], the “HLM Clhep” value in data set [1] turned out to be 10.4 mL/min/kg.
Turning to `Cc1nc(N)ncc1-c1nc(N2CCOCC2)c2nc(C(C)(C)O)n(CCO)c2n1` [Compound 4], the “HLM Clhep” value in data set [1] turned out to be 2.8 mL/min/kg.
The same measure, in the same setting: the result for `COC1(c2sc3c(N4CCOCC4)nc(-c4cnc(N)nc4)nc3c2C)COC1` [Compound 2, reference compound] reads 9.8 mL/min/kg.
As for `Cc1nc(N)ncc1-c1nc(N2CCOCC2)c2nc3n(c2n1)CCOC3(C)C` [Compound 15], the “HLM Clhep” value in data set [1] is on record as 3.1 mL/min/kg. The “HH Clhep” value in data set [2] came out at 1.2 mL/min/kg.
Take `CC1(C)OCCn2c1nc1c(N3CCOCC3)nc(-c3cnc(N)nc3)nc12` [Compound 16, GDC-0084]: in data set [1], the “HLM Clhep” value is 5.0 mL/min/kg. Also, the tolerability entry in data set [3] is recorded as “well tolerated”. Further, the “HH Clhep” value in data set [2] was determined as 1.0 mL/min/kg.
